Data on two substances can be found in patent publication US20220054617A1, “SUBUNIT VACCINE CONSTRUCTS FOR FLAVIVIRUSES” (priority 2018, published 2022).

The target in one assay is TLR-7 (Homo sapiens, UniProt Q9NYK1). To be noted: in vitro.
The test system of assay [1] is human whole blood or PBMCs.
In a further assay the target is TLR-8 (Homo sapiens, UniProt Q9NR97). To be noted: in vitro.
The subject of a further assay is albumin. The settings on record: human, non-human primate, pig, rabbit, rat, mouse; cited from earlier work.

Chain of TLR-8 (Q9NR97 27-1041): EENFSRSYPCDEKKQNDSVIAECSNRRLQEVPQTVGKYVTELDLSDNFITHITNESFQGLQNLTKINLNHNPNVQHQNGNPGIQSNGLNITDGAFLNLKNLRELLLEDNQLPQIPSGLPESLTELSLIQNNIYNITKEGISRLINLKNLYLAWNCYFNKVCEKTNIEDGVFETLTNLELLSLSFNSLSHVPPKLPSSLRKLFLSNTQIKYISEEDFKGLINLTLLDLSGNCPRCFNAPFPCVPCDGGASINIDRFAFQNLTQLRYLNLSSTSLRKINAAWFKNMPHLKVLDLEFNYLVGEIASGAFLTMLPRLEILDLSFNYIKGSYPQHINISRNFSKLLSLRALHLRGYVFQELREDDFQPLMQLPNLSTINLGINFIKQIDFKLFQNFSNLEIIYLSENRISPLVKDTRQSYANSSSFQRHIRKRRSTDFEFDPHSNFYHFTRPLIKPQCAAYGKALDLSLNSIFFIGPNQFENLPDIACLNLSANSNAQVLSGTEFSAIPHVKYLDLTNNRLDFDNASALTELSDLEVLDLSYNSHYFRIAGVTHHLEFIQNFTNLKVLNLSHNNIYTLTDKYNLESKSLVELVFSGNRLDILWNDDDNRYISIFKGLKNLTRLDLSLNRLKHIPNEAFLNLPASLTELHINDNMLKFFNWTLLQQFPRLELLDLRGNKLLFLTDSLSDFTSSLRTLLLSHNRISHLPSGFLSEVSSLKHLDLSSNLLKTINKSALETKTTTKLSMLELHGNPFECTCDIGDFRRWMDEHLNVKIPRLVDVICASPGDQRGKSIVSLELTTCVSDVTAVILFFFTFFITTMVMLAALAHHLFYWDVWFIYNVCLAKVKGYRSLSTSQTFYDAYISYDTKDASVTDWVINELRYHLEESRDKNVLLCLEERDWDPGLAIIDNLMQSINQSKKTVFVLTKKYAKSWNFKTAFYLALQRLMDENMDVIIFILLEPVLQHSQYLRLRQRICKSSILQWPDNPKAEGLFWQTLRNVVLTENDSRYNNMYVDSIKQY
Chain of TLR-7 (Q9NYK1 27-1049, species assumed): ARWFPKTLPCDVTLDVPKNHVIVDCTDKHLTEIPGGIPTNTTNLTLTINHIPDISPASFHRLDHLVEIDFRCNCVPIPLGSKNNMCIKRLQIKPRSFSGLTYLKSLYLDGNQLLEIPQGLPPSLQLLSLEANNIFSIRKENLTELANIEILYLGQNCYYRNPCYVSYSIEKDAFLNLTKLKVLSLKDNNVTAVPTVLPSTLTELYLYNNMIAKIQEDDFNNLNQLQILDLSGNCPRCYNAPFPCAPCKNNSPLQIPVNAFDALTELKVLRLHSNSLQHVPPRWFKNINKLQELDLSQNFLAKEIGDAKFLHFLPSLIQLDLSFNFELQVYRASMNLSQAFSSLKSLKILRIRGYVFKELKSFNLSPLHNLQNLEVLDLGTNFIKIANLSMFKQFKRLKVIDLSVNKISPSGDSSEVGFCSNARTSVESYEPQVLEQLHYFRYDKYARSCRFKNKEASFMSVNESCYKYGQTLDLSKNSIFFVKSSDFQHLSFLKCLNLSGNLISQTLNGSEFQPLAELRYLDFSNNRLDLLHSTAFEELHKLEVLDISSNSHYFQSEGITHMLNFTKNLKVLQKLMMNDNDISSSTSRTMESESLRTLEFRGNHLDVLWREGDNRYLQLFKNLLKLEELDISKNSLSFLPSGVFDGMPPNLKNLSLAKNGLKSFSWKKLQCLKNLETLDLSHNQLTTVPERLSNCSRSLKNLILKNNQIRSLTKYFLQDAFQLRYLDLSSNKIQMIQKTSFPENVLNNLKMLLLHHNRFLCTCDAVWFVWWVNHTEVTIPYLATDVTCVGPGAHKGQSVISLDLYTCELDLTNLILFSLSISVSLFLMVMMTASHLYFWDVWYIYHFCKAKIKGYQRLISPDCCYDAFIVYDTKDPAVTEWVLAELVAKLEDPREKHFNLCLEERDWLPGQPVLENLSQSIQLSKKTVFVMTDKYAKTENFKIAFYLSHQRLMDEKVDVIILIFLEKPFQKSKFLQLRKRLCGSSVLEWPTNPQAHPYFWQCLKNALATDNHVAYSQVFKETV

With “covalent conjugate of an imidazoquinoline TLR7/TLR8 dual agonist [5-(3-(aminomethyl)benzyl)-3-pentylquinolin-2-amine] with hyaluronic acid [EY-4-143]”, the “activity in TLR-7 primary assay” value at TLR-7 is “inactive”. Besides, the cytokine induction result in assay [1] is given as “silent”. Also, the adjuvant effect entry with ZIKV (in vivo) was “potent adjuvant”. For the same substance, the “elicitation of neutralizing antibodies after the first boost” value with ZIKV (with the ZIKV antigen, several candidate adjuvants examined, preliminary screens) is recorded as “consistently elicit neutralizing antibodies after the first boost”. Further, the “activity in TLR-8 primary assay” value at TLR-8 was “inactive”.

“SGP portion: portion of the Streptococcal G protein used as N-terminal tag, SEQ ID NO: 14 (LAEAKVLANRELDKYGVSDYYKNLINNAKTVEGVKALIDEILAALPK)”: the binding to albumin entry with albumin was “good binding”.
